Source: patent US12247227B2, “Methods relating to intestinal organ-on-a-chip” (PRESIDENT AND FELLOWS OF HARVARD COLLEGE, priority 2016, dated 2025)

Experiments:
[1] = test system: small intestine-on-chip (primary human intestinal epithelium with or without HIMEC endothelium)
Excerpt: As used herein, “differentially permeable”, e.g., in reference to an intestinal barrier, refers to the intestinal barrier displaying a resistance to the passage of certain molecules as compared to monolayers of, e.g., endothelial cells or undifferentiated intestinal epithelial cells. […] Such assays are described in the Examples herein in detail. Briefly, the apical side of the intestinal barrier is contacted with one or more tracer molecules and the concentration of the tracer later found on the basal side of the intestinal barrier.
• PROCEDURE. […]
Intestinal functional assessment and cytokine measurements. […] The concentration of dye that diffused through the membrane into endothelial channel was measured in the effluent, and apparent paracellular permeability (Papp) was calculated using the following formula:
[formula] where Vrec is volume receiver (endothelial compartment), Crec concentration receiver, A the seeded area and Cdon concentration donor (epithelial compartment). Cytokines released in the medium were quantified using U-PLEX Biomarker Assays for human Fractalkine, GM-CSF, IFN-γ, IL-1α, IL-1β, IL-6, IL-8, and IL-10 (Mesoscale Discovery).

[2] = test system: enteroid fragments (primary intestinal epithelial cells); experiment: Epithelial cell recovery and on-chip seeding of enteroid fragments generated with or without ROCK inhibitor; format: cell-based, human; conditions: ROCK inhibitor present during fragment isolation and seeding, images 24 h post seeding (FIG. 15)
Experimental: Representative images showing device seeded with enteroid fragments generated in the absence (−ROCK inhibitor) or presence (+ROCK inhibitor) were acquired 24 h post seeding. Equal cell seeding density and time was used for both of the conditions tested.
Prior to the establishment of primary cell culture in organ-on-chip microfluidic device, the hydrophobic PDMS surface is activated by oxygen plasma treatment and aminized with (3-aminopropyl)[…] silane (APTMS, SIGMA 281778). This surface functionalization allows for an improved cell attachment and facilitates long-term culture of intestinal stem cells and their progeny. Next ECM coating solution composed of 1% Matrigel (BD Corning, 356231) and 200 ug/ml Collagen I (BD Corning 3.36 mg/mL; 354226) is introduced in both the upper and the lower microfluidic channel and device is placed in a humidified 37° C. incubator for the minimum of 2 hours. Then human intestinal microvascular endothelial cells, e.g., purchased from ScienCell (Catalog #2900), are seeded on the bottom side of the porous stretchable PDMS membrane that separates two parallel microchannels of the organ-on-chip device. […]

Row | Molecule | Optimal Papp (apparent permeability) for small intestine-on-chip [1] [×10⁻⁶ cm/s] | Papp [1] | epithelial cell recovery and on-chip seeding [2]
1 | Lucifer Yellow | ~1 | 1-2×10^−6 | –
2 | C[C@@H](N)[C@H]1CC[C@H](C(=O)Nc2ccncc2)CC1 [ROCK inhibitor, Y-27632] | – | – | Improved epithelial cells recovery and on-chip seeding
